According to publication PMC11093748, “De novo identification of CD4^+ T cell epitopes” (Nature Methods, 2024):

How the values were obtained:
TCR1 = test: Multiplexed TCR/library dropout screen, mean ES; format: cell-based, mouse; settings: two I-Ag7 libraries combined, mixture of seven TCRs, dropout replicates (n = 6); one biological experiment
From the text: (§1) Finally, we sought to address two important aspects of antigen discovery techniques. First, we assessed whether SABR-II screens can directly read out the strength of TCR–pMHC binding. To that end, we selected six known BDC2.5 ligands across a range of ES values (Extended Data Fig. 9a) and we measured the functional avidity of their recognition by BDC2.5 TCR in vitro. Bone-marrow-derived dendritic cells were pulsed with a range of concentrations of peptides corresponding to the epitopes and used to present the peptides to BDC2.5 TCR-expressing 5KC cells. Secretion of mIL-2 was measured by ELISA and used to determine the functional avidity as EC50 (concentration of the peptide needed to induce half-maximal mIL-2) (Extended Data Fig. 9b). We observed that there was a modest negative correlation between the EC50 values of the epitopes and their ES values (Extended Data Fig. 9c). […] Second, we evaluated whether we could increase the throughput of SABR-II screens by multiplexing TCRs and libraries at the cellular level. We combined the two previously described I-Ag7 libraries in equal proportions according to their size and used it as a single library. We also employed a dropout strategy, in which a mixture of seven TCRs was screened in replicate, where one TCR was left out in each replicate. After single enrichment, we determined the mean ES of all replicates that contained a given TCR and used it to identify the cognate epitope of that TCR (Extended Data Fig. 10 and Supplementary Table 6). Using this strategy, we were able to successfully recapitulate the results for four out of four TCRs previously identified in individual screens. The use of such a strategy will greatly enhance the throughput or SABR-II screens by reducing the hands-on sort time from 1 h per TCR to 20 min per TCR.
(§2) For SABR library screens, 3 × 10^6 NFAT–GFP Jurkat cells expressing the SABR library were labeled with CellTrace Violet (BioLegend) according to the manufacturer’s protocol before incubation with 3 × 10^6 Jurkat cells expressing the TCR of interest. These mixtures were incubated in a six-well plate for 16–20 h. Cells were stained with anti-CD69-APC-Cy7 where indicated (BioLegend) and the top 1–2% of GFP^+CD69^+ cells were sorted for genomic DNA extraction, indexing and sequencing (see below). Multiplexed assays were scaled on a per-TCR basis (for example 3 × 10^6 for each of three TCRs against 9 × 10^6 library cells). For single SABR assays, unless otherwise defined, 5 × 10^5 SABR expressing NFAT–GFP Jurkat cells (or 5KC cells) were labeled with CellTrace Violet (BioLegend) according to the manufacturer’s protocol before incubation with 5 × 10^5 TCR-expressing Jurkat cells (or 5KC cells) in a round-bottom 96-well plate for 16–20 h. Cells were stained with anti-CD69-APC-Cy7 when indicated and acquired on the Attune NxT flow cytometer (Thermo Fisher Scientific). All flow analysis was performed using FlowJo (BD). For Daudi cell co-culture, 1 × 10^6 Jurkat cells expressing the TCR of interest were incubated with 1 × 10^6 Daudi cells expressing a SABR of interest for 3 days. On day 3, cells were labeled with anti-RT1B-PE and anti-Fas-APC-Cy7 before being acquired on the Attune NxT flow cytometer.
(§3) Genomic DNA was extracted from sorted cells immediately after sorting, using the PureLink genomic DNA extraction kit (Life Technologies). The integrated SABR vectors were amplified with KOD polymerase (Millipore) and two rounds of amplification. In the first round, IDT-UD-SABR-C2-F and IDT-UD-SABR-C2-R primers were used to amplify the epitope. In the second round, UDI0001-R and UDI0001-F primers (representative of index 1) were used to add Illumina unique dual indexes (UDIs) to the amplicons. A different UDI was used for each sample. The reactions were pooled and purified with the NucleoSpin gel and PCR purification kit (Takara). The purified PCR product was checked before sequencing using 2% agarose gel and subjected to sequencing on a HiSeq4000 (Fulgent Genetics). […]

TCR24 = test: Multiplexed TCR/library dropout screen, mean ES; format: cell-based, mouse; settings: Avg ES for all the replicates that contain that TCR (TCR24)
From the text: as §1, §2, §3

TCR2 = test: Multiplexed TCR/library dropout screen, mean ES; format: cell-based, mouse; settings: Avg ES for all the replicates that contain that TCR (TCR2)
From the text: as §1, §2, §3

TCR37 = test: Multiplexed TCR/library dropout screen, mean ES; format: cell-based, mouse; settings: Avg ES for all the replicates that contain that TCR (TCR37)
From the text: as §1, §2, §3

TCR3 = test: Multiplexed TCR/library dropout screen, mean ES; format: cell-based, mouse; settings: two I-Ag7 libraries combined, mixture of seven TCRs, dropout replicates (n = 6)
From the text: as §1, §2, §3

TCR5 = test: Multiplexed TCR/library dropout screen, mean ES; format: cell-based, mouse; settings: two I-Ag7 libraries combined, mixture of seven TCRs, dropout replicates (n = 6)
From the text: as §1, §2, §3

TCR7 = test: Multiplexed TCR/library dropout screen, mean ES; format: cell-based, mouse; settings: two I-Ag7 libraries combined, mixture of seven TCRs, dropout replicates (n = 6)
From the text: as §1, §2, §3

Jurkat cells, No TCR = test: Single SABR-II co-incubation, background without TCR; format: cell-based, human
Procedure, shortened: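 Single SABR-II constructs for putative cognate epitopes were expressed in CellTrace Violet-labelled NFAT–GFP Jurkat cells and co-incubated 1:1 (5 × 10^5 each) with TCR-expressing Jurkat cells for 16–20 h. GFP (with CD69 staining when indicated) was measured by flow cytometry. Wells with GFP above the no-TCR control were scored positive.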

[1] = No TCR, Fig 3B, 18 h, biological replicate 1
[2] = No TCR, Fig 3B, 18 h, biological replicate 2
[3] = No TCR, Fig 3B, 18 h, biological replicate 3
[4] = No TCR, Fig 4B, technical replicate 1
[5] = No TCR, Fig 4B, technical replicate 2

| Sequence | Mean Dropout Enrichment Score (TCR1) | ES for each dropout, LOO_TCR24 (TCR24) | ES for each dropout, LOO_TCR2 (TCR2) | ES for each dropout, LOO_TCR37 (TCR37) | Mean Dropout Enrichment Score (TCR3) | Mean Dropout Enrichment Score (TCR5) | Mean Dropout Enrichment Score (TCR7) | %GFP+CD69+ cells of SABR-NFAT-GFP-Jurkat cells (Jurkat cells, No TCR; No TCR, Ext. Data Fig. 6C, 18-20 hr, technical replicate 1) | %GFP+CD69+ cells of SABR-NFAT-GFP-Jurkat cells (Jurkat cells, No TCR; No TCR, Ext. Data Fig. 6C, 18-20 hr, technical replicate 2) | %GFP+CD69+ cells of SABR-NFAT-GFP-Jurkat cells (Jurkat cells, No TCR; [1]) | %GFP+CD69+ cells of SABR-NFAT-GFP-Jurkat cells (Jurkat cells, No TCR; [2]) | %GFP+CD69+ cells of SABR-NFAT-GFP-Jurkat cells (Jurkat cells, No TCR; [3]) | %GFP+CD69+ cells of SABR-NFAT-GFP-Jurkat cells (Jurkat cells, No TCR; [4]) | %GFP+CD69+ cells of SABR-NFAT-GFP-Jurkat cells (Jurkat cells, No TCR; [5]) | %GFP+CD69+ cells of SABR-NFAT-GFP-Jurkat cells (Jurkat cells, No TCR; No TCR, Fig 5C, technical replicate 1) | %GFP+CD69+ cells of SABR-NFAT-GFP-Jurkat cells (Jurkat cells, No TCR; No TCR, Fig 5C, technical replicate 2) | %GFP+CD69+ cells of SABR-NFAT-GFP-Jurkat cells (Jurkat cells, No TCR; Mock TCR, Fig 4B, technical replicate 1) | %GFP+CD69+ cells of SABR-NFAT-GFP-Jurkat cells (Jurkat cells, No TCR; Mock TCR, Fig 4B, technical replicate 2) | %GFP+CD69+ cells of SABR-NFAT-GFP-Jurkat cells (Jurkat cells, No TCR; No TCR, Fig 4B, technical replicate 3) |
| --- | --- | --- | --- | --- | --- | --- | --- | --- | --- | --- | --- | --- | --- | --- | --- | --- | --- | --- | --- |
| AAVEEGIVAGGGVTLL | 9.635e-6 | 1.546e-6 | 1.97e-6 | 2.247e-6 | -1.302e-6 | -4.831e-6 | -1.2378e-6 | – | – | – | – | – | – | – | – | – | – | – | – |
| AEKVRNLPAGHGLNAQ | -4.113e-5 | -1.89e-5 | -1.229e-5 | -2.944e-5 | -2.694e-5 | -3.449e-5 | -3.038e-5 | – | – | – | – | – | – | – | – | – | – | – | – |
| AGGVAVIKAGAATEV | 1.903e-5 | 2.636e-5 | 7.935e-6 | 1.413e-5 | 3.191e-5 | 1.931e-5 | 2.296e-5 | – | – | – | – | – | – | – | – | – | – | – | – |
| AKAAVEEGIVAGGGV | 1.526e-5 | 8.2968e-7 | 1.371e-5 | 7.483e-6 | 1.247e-5 | 9.209e-6 | -7.192e-6 | – | – | – | – | – | – | – | – | – | – | – | – |
| ALVREGLRNVAAGANP | -1.224e-5 | -1.224e-5 | -1.224e-5 | -1.224e-5 | -1.224e-5 | -1.224e-5 | -1.224e-5 | – | – | – | – | – | – | – | – | – | – | – | – |
| LQTLALNAARDP | – | – | – | – | – | – | – | 3.08% | 3.07% | 2.51% | 6.93% | 3.6% | 1.39% | 1.36% | 0.73% | 0.75% | – | – | – |
| SHLVEALYLVCGERG | – | – | – | – | – | – | – | – | – | 2% | 3.5% | 1.84% | 0.93% | 1.04% | – | – | 3.46% | 3.03% | 1.2% |
